# Test results as given in paper PMC12693701, “Glucosinolate-Derived Metabolites from Barbarea vulgaris (Brassicaceae): Evaluation of Antimicrobial, Antioxidant, and Anti-Inflammatory Potentials” (Molecules, 2025).
# Like-named read-outs stand apart in the source and are kept apart here.
# How the values were obtained:
# C. albicans ATCC 10231 = assay: Microdilution MIC/MMC with resazurin; type: cell-based, Candida albicans; details: for MIC: Candida albicans, ATCC10231
# Experimental: (§1) The antimicrobial activity was evaluated against 15 microorganisms. This included 11 bacterial strains: four standard strains (Staphylococcus aureus ATCC 25923, Bacillus subtilis ATCC 6633, Bacillus pumilus NCTC 8241, and Escherichia coli ATCC 25922) and six clinical or environmental isolates (Staphylococcus aureus, Escherichia coli, Bacillus cereus, Proteus mirabilis, Salmonella enterica, and Klebsiella pneumoniae). One probiotic strain, Bifidobacterium animalis subsp. lactis was tested. In addition, four fungal strains, Candida albicans ATCC 10231, Trichoderma viride ATCC 13233, Aspergillus flavus ATCC 9170, and Fusarium solani ATCC 11712 were tested. The bacterial strains were kept in glycerol stock at −80 °C and the fungal strains in paraffin oil stock at 4 °C.
# (§2) Bacterial and yeast suspensions were prepared using the direct colony method, as previously described by Andrews. The turbidity of the initial suspensions was adjusted to match the 0.5 McFarland standard using a densitometer (Biosan, Riga, Latvia), corresponding to approximately 10^8 colony-forming units (CFU)/mL for bacterial cells and 10^6 CFU/mL for yeast cells. Subsequently, 1:100 dilutions of the initial suspensions were prepared in sterile 0.85% saline. Fungal spore suspensions were obtained by gently harvesting spores from agar slopes containing mature mycelial growth. The collected spore suspensions were then diluted 1:1000 in sterile 0.85% saline prior to use.
# (§3) Antimicrobial activity was evaluated by determining the minimum inhibitory concentration (MIC) and minimum microbicidal concentration (MMC) using the microdilution plate method with resazurin as an indicator [28]. In the 96-well plates, 100 μL of Mueller–Hinton broth (Torlak, Belgrade, Serbia) for bacterial testing and Sabouraud broth (Torlak, Belgrade, Serbia) for fungal testing were dispensed into each well. The compounds under investigation were initially dissolved in a 10% dimethyl sulfoxide (DMSO) solution, followed by dilution in sterile distilled water, resulting in a working compound solution containing 1% DMSO. A 100 μL aliquot of the stock solution of the tested compound was added to the first row, and twofold serial dilutions were then carried out using a multichannel pipette. The resulting concentration range was from 5 to 0.039 mg/mL. The inoculated microtiter plates were incubated at 37 °C for 24 h for bacteria, at 28 °C for 48 h for yeasts, and at 28 °C for 72 h for molds.
# (§4) Each test also included growth control and sterility control. All tests were conducted in duplicate. MIC was defined as the lowest concentration of tested compounds that prevented resazurin color change from blue to pink. For molds, MIC values of the tested compound were determined as the lowest concentration that inhibited visible mycelia growth. MMC was determined by inoculation of the nutrient agar medium by plating […] of samples from wells, where no indicator color change was recorded. At the end of the incubation period, the lowest concentration with no growth (no colony) was defined as MMC.
# (§5) Doxycycline, ampicillin and amphotericin B (- Sigma-Aldrich, St. Louis, MO, USA) and ketoconazole (Hemofarm A.D., Vršac, Serbia) were dissolved in a nutrient liquid medium. Doxycycline is a broad-spectrum antibiotic effective against both aerobic and anaerobic Gram-positive and Gram-negative bacteria. Ampicillin, a beta-lactam antibiotic, primarily targets Gram-positive bacteria but also some Gram-negative strains. Amphotericin B is an antifungal drug often used for serious systemic fungal infections and is one of the effective treatments for fungal infections caused by Aspergillus sp. Ketoconazole is an antifungal agent used to inhibit the growth of Candida species.
# B. cereus = assay: Microdilution MIC/MMC with resazurin; type: cell-based, Bacillus cereus; details: for MIC: Bacillus cereus
# Experimental: as §1, §2, §3, §4, §5
# S. enterica = assay: Microdilution MIC/MMC with resazurin; type: cell-based, Salmonella enterica; details: compounds 1–8; for MIC: Salmonella enterica
# Experimental: as §1, §2, §3, §4, §5
# E. coli ATCC 25922 = assay: Microdilution MIC/MMC with resazurin; type: cell-based, Escherichia coli; details: for MIC: Escherichia coli, ATCC25922
# Experimental: as §1, §2, §3, §4, §5
# E. coli = assay: Microdilution MIC/MMC with resazurin; type: cell-based, Escherichia coli; details: E. coli isolate, compounds 1–8
# Experimental: as §1, §2, §3, §4, §5
# K. pneumoniae = assay: Microdilution MIC/MMC with resazurin; type: cell-based, Klebsiella pneumoniae; details: for MIC: Klebsiella pneumoniae
# Experimental: as §1, §2, §3, §4, §5
# B. subtilis ATCC 6633 = assay: Microdilution MIC/MMC with resazurin; type: cell-based, Bacillus subtilis; details: for MIC: Bacillus subtilis, ATCC6633
# Experimental: as §1, §2, §3, §4, §5
# S. aureus = assay: Microdilution MIC/MMC with resazurin; type: cell-based, Staphylococcus aureus; details: for MIC: Staphylococcus aureus
# Experimental: as §1, §2, §3, §4, §5
# S. aureus ATCC 25923 = assay: Microdilution MIC/MMC with resazurin; type: cell-based, Staphylococcus aureus; details: for MIC: Staphylococcus aureus, ATCC25923
# Experimental: as §1, §2, §3, §4, §5
# [1] = ABTS radical scavenging assay; details: mean ± SD
# Experimental: The ABTS radical cation solution was prepared following the previously described protocol. Different concentrations of the analyzed samples were prepared in DMSO. The test samples were prepared following the specified procedure: 20 µL of sample was combined with 980 µL of methanol, followed by the addition of 1000 µL of ABTS solution. Absorbance was measured at 734 nm. All measurements were performed in triplicate.
# P. mirabilis = assay: Microdilution MIC/MMC with resazurin; type: cell-based, Proteus mirabilis; details: for MIC: Proteus mirabilis
# Experimental: as §1, §2, §3, §4, §5
# F. solani ATCC 11712 = assay: Microdilution MIC/MMC; type: cell-based, Fusarium solani
# Experimental: as §1, §2, §3, §4, §5
# [2] = test system: B. animalis subsp. lactis; assay: Microdilution MIC/MMC with resazurin; type: cell-based, Bifidobacterium animalis subsp. lactis
# Experimental: as §1, §2, §3, §4, §5
# B. pumilus NCTC 8241 = assay: Microdilution MIC/MMC with resazurin; type: cell-based, Bacillus pumilus; details: for MIC: Bacillus pumilus, NCTC8241
# Experimental: as §1, §2, §3, §4, §5
# [3] = C. albicans ATCC 10231, compounds 1–8
# [4] = C. albicans ATCC 10231, compounds 1–8, read-out: MIC
# [5] = B. cereus, compounds 1–8, read-out: MIC
# [6] = E. coli ATCC 25922, compounds 1–8
# [7] = E. coli ATCC 25922, compounds 1–8, read-out: MIC
# [8] = Escherichia coli, read-out: MIC
# [9] = K. pneumoniae, compounds 1–8, read-out: MIC
# [10] = B. subtilis ATCC 6633, compounds 1–8
# [11] = B. subtilis ATCC 6633, compounds 1–8, read-out: MIC
# [12] = S. aureus isolate, compounds 1–8
# [13] = S. aureus isolate, compounds 1–8, read-out: MIC
# [14] = S. aureus ATCC 25923, compounds 1–8
# [15] = S. aureus ATCC 25923, compounds 1–8, read-out: MIC
# [16] = P. mirabilis, compounds 1–8, read-out: MIC
# [17] = F. solani ATCC 11712, compounds 1–8
# [18] = Fusarium solani, ATCC11712, F. solani ATCC 11712, compounds 1–8, read-out: MIC
# [19] = B. animalis subsp. lactis, compounds 1–8
# [20] = Bifidobacterium animalis, B. animalis subsp. lactis, compounds 1–8, read-out: MIC
# [21] = B. pumilus NCTC 8241, compounds 1–8
# [22] = B. pumilus NCTC 8241, compounds 1–8, read-out: MIC
SMILES,MMC (C. albicans ATCC 10231; [3]),MIC (C. albicans ATCC 10231; [4]),"MMC (B. cereus; B. cereus, compounds 1–8)",MIC (B. cereus; [5]),MIC (S. enterica),MMC (S. enterica),MMC (E. coli ATCC 25922; [6]),MIC (E. coli ATCC 25922; [7]),MMC (E. coli),"MMC (K. pneumoniae; K. pneumoniae, compounds 1–8)",MMC (B. subtilis ATCC 6633; [10]),MMC (S. aureus; [12]),MMC (S. aureus ATCC 25923; [14]),ABTS Scavenging Ability ([1]; 25 µM),ABTS Scavenging Ability ([1]; 50 µM),ABTS Scavenging Ability ([1]; 100 µM),"MMC (P. mirabilis; P. mirabilis, compounds 1–8)",MMC (F. solani ATCC 11712; [17]),"MMC [2, 19]",MMC (B. pumilus NCTC 8241; [21]),further results
"O=C1NCC(c2ccccc2)O1 (stereo not drawn) [Compound 7, 5-Phenyl-1,3-oxazolidin-2-one]",5 mg/mL,2500 µg/mL,5 mg/mL,5000 µg/mL,1250 µg/mL,2.5 mg/mL,2.5 mg/mL,1250 µg/mL,2.5 mg/mL,2.5 mg/mL,5 mg/mL,5 mg/mL,5 mg/mL,1.3 ± 0.1%,2.7 ± 1.0%,3.9 ± 0.4%,2.5 mg/mL,2.5 mg/mL,5 mg/mL,5 mg/mL,"MIC (E. coli; [8]): 1250 µg/mL; MIC (K. pneumoniae; [9]): 2500 µg/mL; MIC (B. subtilis ATCC 6633; [11]): 5000 µg/mL; MIC (S. aureus; [13]): 2500 µg/mL; MIC (S. aureus ATCC 25923; [15]): 5000 µg/mL; MIC (P. mirabilis; [16]): 2500 µg/mL; MIC (F. solani ATCC 11712; [18]): 2500 µg/mL; MIC [2, 20]: 2500 µg/mL; MIC (B. pumilus NCTC 8241; [22]): 5000 µg/mL"
"CSC(=S)NCCc1ccccc1 [Compound 1, Methyl phenethylcarbamodithioate]",>5 mg/mL,1250 µg/mL,5 mg/mL,5000 µg/mL,5000 µg/mL,5 mg/mL,1.25 mg/mL,1250 µg/mL,5 mg/mL,5 mg/mL,>5 mg/mL,5 mg/mL,5 mg/mL,1.7 ± 1.1%,2.2 ± 1.2%,2.6 ± 0.8%,5 mg/mL,1.25 mg/mL,2.5 mg/mL,2.5 mg/mL,"MIC (E. coli; [8]): 2500 µg/mL; MIC (K. pneumoniae; [9]): 5000 µg/mL; MIC (B. subtilis ATCC 6633; [11]): 2500 µg/mL; MIC (S. aureus; [13]): 5000 µg/mL; MIC (S. aureus ATCC 25923; [15]): 5000 µg/mL; MIC (P. mirabilis; [16]): 5000 µg/mL; MIC (F. solani ATCC 11712; [18]): 1250 µg/mL; MIC [2, 20]: 1250 µg/mL; MIC (B. pumilus NCTC 8241; [22]): 1250 µg/mL"
"S=C1NC[C@H](c2ccccc2)O1 [Compound 5, (S)-5-phenyl-1,3-oxazolidine-2-thione]",>5 mg/mL,5000 µg/mL,>5 mg/mL,> 5000 µg/mL,5000 µg/mL,>5 mg/mL,5 mg/mL,5000 µg/mL,5 mg/mL,5 mg/mL,>5 mg/mL,>5 mg/mL,>5 mg/mL,6.6 ± 0.2%,12.3 ± 0.8%,19.1 ± 0.6%,5 mg/mL,>5 mg/mL,5 mg/mL,5 mg/mL,"MIC (E. coli; [8]): 5000 µg/mL; MIC (K. pneumoniae; [9]): 5000 µg/mL; MIC (B. subtilis ATCC 6633; [11]): > 5000 µg/mL; MIC (S. aureus; [13]): > 5000 µg/mL; MIC (S. aureus ATCC 25923; [15]): 5000 µg/mL; MIC (P. mirabilis; [16]): 5000 µg/mL; MIC (F. solani ATCC 11712; [18]): 5000 µg/mL; MIC [2, 20]: 1250 µg/mL; MIC (B. pumilus NCTC 8241; [22]): 2500 µg/mL"
"CSC(=S)NCCc1ccc(O)cc1 [Compound 2, methyl-4-hydroxyphenylethyl dithiocarbamate]",>5 mg/mL,2500 µg/mL,0.625 mg/mL,156 µg/mL,625 µg/mL,,0.312 mg/mL,312 µg/mL,0.312 mg/mL,0.625 mg/mL,1.25 mg/mL,0.312 mg/mL,0.156 mg/mL,7.6 ± 1.0%,13.4± 0.9%,13.4 ± 0.8%,0.312 mg/mL,0.234 mg/mL,0.625 mg/mL,0.156 mg/mL,"MIC (E. coli; [8]): 312 µg/mL; MIC (K. pneumoniae; [9]): 625 µg/mL; MIC (B. subtilis ATCC 6633; [11]): 78 µg/mL; MIC (S. aureus; [13]): 312 µg/mL; MIC (S. aureus ATCC 25923; [15]): 156 µg/mL; MIC (P. mirabilis; [16]): 156 µg/mL; MIC (F. solani ATCC 11712; [18]): 156 µg/mL; MIC [2, 20]: 78 µg/mL; MIC (B. pumilus NCTC 8241; [22]): 156 µg/mL"
"Oc1ccc(CCN=C=S)cc1 [Compound 8, 2-(4-hydroxyphenyl)ethyl isothiocyanate]",2.5 mg/mL,,1.25 mg/mL,,312 µg/mL,1.25 mg/mL,0.312 mg/mL,,0.625 mg/mL,0.625 mg/mL,>5 mg/mL,0.312 mg/mL,0.625 mg/mL,2.9 ± 1.3%,6.8 ± 1.1%,11.9 ± 0.8%,0.625 mg/mL,<0.039 mg/mL,0.625 mg/mL,0.156 mg/mL,"MIC (C. albicans ATCC 10231): 2500 µg/mL; MIC (B. cereus): 156 µg/mL; MIC (E. coli ATCC 25922): 78 µg/mL; MIC (E. coli): <39 µg/mL; MIC (E. coli; Escherichia coli): 39 µg/mL; MIC (K. pneumoniae): 312 µg/mL; MIC (B. subtilis ATCC 6633): 312 µg/mL; MIC (S. aureus): 78 µg/mL; MIC (S. aureus ATCC 25923): 156 µg/mL; MIC (P. mirabilis): 156 µg/mL; MIC (F. solani ATCC 11712; [17]): <39 µg/mL; MIC (F. solani ATCC 11712; Fusarium solani, ATCC11712): < 39 µg/mL; MIC [2, 19]: <39 µg/mL; MIC ([2]; Bifidobacterium animalis): < 39 µg/mL; MIC (B. pumilus NCTC 8241): 156 µg/mL"
